Measurements reported in patent US20220409650A1, “COMPOSITIONS AND METHODS FOR ASCAROSIDE MODIFICATION OF MAMMALIAN MICROBIOTA” (Holoclara, Inc., priority 2019, published 2022).
Entries after “also recorded” stand apart in the source; their conditions may differ.

How the values were obtained:
Format in all cases: in vivo, C57BL6 mice
[1] = test system: Bifidobacterium (e.g., Bifidobacterium catenulatum); assay: Differential abundance of Bifidobacterium in gut microbiota of treated mice (stool sequencing); conditions: stools at end
Method: (§1) In the methods described for each of these examples, C57BL6 mice at 6 weeks of age were allowed to be appropriately acclimated before the start of the change in diet and treatments. For Experiment 1 (Example 1), thirty-two mice were evenly distributed into four groups with Group 1 as the control diet, no treatment, Group 2 as the high-fat diet, treat with DMSO control, Group 3 as the high-fat diet, treated with 12.5 μg of Ascr #7/mouse per injection (0.5 mg/kg dose assuming a 25 gm mouse), Group 4 as the high-fat diet, treated with 4.1 μg Ascr #9/mouse per injection (0.164 mg/kg dose assuming a 25 gm mouse). […]
(§2) DNA was extracted using the Qiagen MagAttract PowerSoil DNA KF kit (Formerly MO Bio PowerSoil DNA Kit) using a KingFisher robot. DNA quality was evaluated visually via gel electrophoresis and quantified using a Qubit 3.0 fluorometer (Thermo-Fischer, Waltham, Mass., USA). […]
(§3) Paired-end sequencing (150 bp×2) was done on a NextSeq 500 in medium-output mode. Shotgun metagenomic sequence reads were processed with the Sunbeam pipeline. […] Processing took part in four steps: adapter removal, read trimming, low-complexity reads removal, and host-sequence read removal. […] Low-complexity sequences were detected with Komplexity v0.3.6.
(§4) The remaining reads were taxonomically classified using Kraken2 with the MiniKraken2_v1 database. […]

gut microbiota = assay: Gut microbiota diversity (Shannon alpha diversity) from shotgun metagenomic sequencing of stool of treated mice; conditions: stools at end
Method: as §1, §2, §3, §4

Adlercreutzia = assay: Differential abundance of Adlercreutzia in gut microbiota of treated mice (stool sequencing); conditions: Experiment 1, mice, 31 days of treatment, stools at end, vs control (FIG. 9)
Method: as §1, §2, §3, §4

[2] = Stool consistency (Bristol Stool Chart) of treated mice; conditions: Experiment 3, mice, 12.5 μg/mouse IP, stools at end, vs untreated control (FIG. 10)
Method: For Experiment 3, ten mice were assigned Group 7 to be treated with DMSO control. Eight mice were assigned to Group 8 to be treated with 12.5 μg of Ascr #7/mouse per injection (0.5 mg/kg dose assuming a 25 gm mouse). Nine mice were assigned to Group 9 to be treated with 12.5 μg of Compound 1/mouse per injection (0.5 mg/kg dose assuming a 25 gm mouse). To make the master stocks, Ascr #7 and Compound 1 were dissolved in DMSO to make 10 μg/uL of the Ascr #7 and Compound 1 master stocks and 12.5 μL of each master stocks were aliquoted into glass vials for each day of injection. Mice from each group were IP injected three times a week for 3 weeks and one day for a total of 10 injections. On each day of IP injection, 987.5 μL of ultra-pure water is added to each master stocks to make 0.125 μg/uL of Ascr #7 and Compound 1 working stocks and 100 μL of each was IP injected into mice. As will be described in greater detail below, Compound 1 refers to the ascaroside derisive:
The methods and compositions described herein may also be used to treat constipation. Constipation, which accompanies various diseases, may be a symptom of underlying defects in either transit of fecal mass through the gut or defecation, a commonly diagnosed functional gastrointestinal disorder. […]

Akkermansia = assay: Differential abundance of Akkermansia in gut microbiota of treated mice (stool sequencing); conditions: Experiment 1, mice, 31 days of treatment, stools at end, vs control (FIG. 9)
Method: as §1, §2, §3, §4

| Structure (SMILES) | amount of Bifidobacter in the gut microbiota ([1]; Experiment 1, mice, 31 days of treatment, vs control (FIG. 9)) | amount of Bifidobacterium catenulatum in the gut microbiota ([1]; Experiment 3, mice, vs control (FIG. 8)) | alpha diversity of the gut microbiota (Shannon's diversity index) (gut microbiota; Experiment 3, mice, 12.5 μg/mouse IP three times a week, 10 injections, vs DMSO control (FIG. 3)) | amount of Adlercreutzia in the gut microbiota (Adlercreutzia) | proportion of feces with Type 4 stools (smooth and soft, Bristol Stool Chart) [2] | amount of Akkermansia in the gut microbiota (Akkermansia) | alpha diversity of the gut microbiota (Shannon's diversity index) (gut microbiota; Experiment 1, high-fat diet mice, 4.1 μg/mouse IP three times a week for 31 days, vs control (FIG. 4)) |
| --- | --- | --- | --- | --- | --- | --- | --- |
| C[C@H](CC/C=C/C(=O)O)O[C@@H]1O[C@@H](C)[C@H](O)C[C@H]1O [Ascr #7] | increases | specific increase; also recorded: increased significantly | increased alpha diversity; also recorded: substantial increase in diversity | increases; also recorded: increase in the overall amount | significantly higher proportion of feces with Type 4 stools | increases; also recorded: increase in the overall amount | – |
| C[C@H](CCC(=O)O)O[C@@H]1O[C@@H](C)[C@H](O)C[C@H]1O [Ascr #9] | – | – | – | increase in the overall amount | – | increase in the overall amount | increase in alpha diversity; also recorded: increased |
| C[C@H](CC/C=C/C(=O)OC(C)(C)C)O[C@@H]1O[C@@H](C)[C@H](O)C[C@H]1O [Compound 1, tert-butyl (2E,6R)-6-{[(2R,3R,5R,6S)-3,5-dihydroxy-6-methyloxan-2-yl]oxy}hept-2-enoate] | – | – | – | – | significantly higher proportion of feces with Type 4 stools | – | – |
